Here are results for 14 compounds from patent US20060115815A1 (priority 2002, published 2006).

In one data set the target is T1, GS-7340 Ester Hydrolase (Homo sapiens, UniProt P10619).
T1 construct: from tissue; host or cells: human peripheral blood mononuclear cells (extract and column pools)
The data set is described as follows: biochemical.

The target of data set [1] is T2, 84V90M (Human immunodeficiency virus type 1 group M subtype B, UniProt P04585, I572V/L578M). Put plainly: biochemical. More on the design: species or system HIV-1.
The test system of the next data set is WT. The data set is described as follows: microbe, parasite or virus in culture. The following applies: Human immunodeficiency virus 1, read-out: Cell-based assay (MT-4) EC50 WT. Type of data set: cell-based, HIV-1.
Data set [2] concerns 48V54V82S. Put plainly: microbe, parasite or virus in culture. The arrangement: species or system HIV-1. The following applies: Human immunodeficiency virus 1, read-out: Cell-based assay (MT-4) EC50 48V54V82S.
Data set [3] has as its system 46I50V. Put plainly: microbe, parasite or virus in culture. The class given is cell-based, HIV-1. To be noted: Human immunodeficiency virus 1, read-out: Cell-based assay (MT-4) EC50 46I50V.
The test system of data set [4] is 30N82I88D. The data set is described as follows: microbe, parasite or virus in culture. Type of data set: cell-based, HIV-1. To be noted: Human immunodeficiency virus 1, read-out: Cell-based assay (MT-4) EC50 30N82I88D.
Data set [5] relates to 48V54V82A. Put plainly: microbe, parasite or virus in culture. The class given is cell-based, HIV-1. To be noted: Human immunodeficiency virus 1, read-out: Cell-based assay (MT-4) EC50 48V54V82A.
Data set [6] deals with T2, 84V90M. Put plainly: cell-based. The arrangement: species or system HIV-1.
Data set [7] deals with 48V82A90M. The data set is described as follows: microbe, parasite or virus in culture. More on the design: species or system HIV-1. The following applies: Human immunodeficiency virus 1, read-out: Cell-based assay (MT-4) EC50 48V82A90M.
For data set [8], the system named is MT-2 cells.
Data set [9] has as its system recombinant HIV-1 strains with resistance mutations in the protease gene. The data set is described as follows: Cross-resistance profile assay, whole panel of mutant viruses. The class given is cell-based. The following applies: of 11 mutant viruses; resistance = 5-fold and higher change in EC50 relative to wild-type.
Data set [10] concerns MT-2 cells. This is another data set of the same source.
Data set [11] has as its system PBMC in intact human whole blood.
The target in data set [12] is T2, 84V90M. Put plainly: Enzymatic assay, IC50 against 84V90M mutant protease. The class given is biochemical, HIV-1.
The test system of the next data set is WT HIV-1. Put plainly: microbe, parasite or virus in culture. Type of data set: cell-based. The following applies: MT-4, WT; read-out: Cell-based assay (MT-4) EC50/nM WT.
Data set [13] has as its system 48V54V82S. The arrangement: species or system HIV-1. To be noted: MT-4, 48V54V82S; read-out: Cell-based assay (MT-4) EC50/nM 48V54V82S.
In data set [14] the test system is 48V82A90M. The arrangement: species or system HIV-1. The following applies: MT-4, 48V82A90M; read-out: Cell-based assay (MT-4) EC50/nM 48V82A90M.
In data set [15] the test system is 46I50V. The arrangement: species or system HIV-1. The following applies: MT-4, 46I50V; read-out: Cell-based assay (MT-4) EC50/nM 46I50V.
Data set [16] deals with 30N82I88D. More on the design: species or system HIV-1. To be noted: MT-4, 30N82I88D; read-out: Cell-based assay (MT-4) EC50/nM 30N82I88D.
Data set [17] deals with mutant HIV-1 with I84V/L90M mutations in the protease gene. Type of data set: cell-based. To be noted: MT-4, 84V90M; read-out: Cell-based assay (MT-4) EC50/nM 84V90M.
The subject of data set [18] is 48V54V82A. The arrangement: species or system HIV-1. The following applies: MT-4, 48V54V82A; read-out: Cell-based assay (MT-4) EC50/nM 48V54V82A.
For data set [19], the target named is recombinant HIV-1 protease (Human immunodeficiency virus type 1 group M subtype B, UniProt P04585). Put plainly: biochemical. The class given is biochemical. To be noted: read-out: Enzymatic assay WT IC50/nM.
In data set [20] the test system is wild-type HIV-1 strain IIIB. Put plainly: microbe, parasite or virus in culture. Type of data set: cell-based. To be noted: read-out: EC50.

Like-named read-outs stand apart in the source and are kept apart here.

T1 sequence (P10619 29-326 limits assumed): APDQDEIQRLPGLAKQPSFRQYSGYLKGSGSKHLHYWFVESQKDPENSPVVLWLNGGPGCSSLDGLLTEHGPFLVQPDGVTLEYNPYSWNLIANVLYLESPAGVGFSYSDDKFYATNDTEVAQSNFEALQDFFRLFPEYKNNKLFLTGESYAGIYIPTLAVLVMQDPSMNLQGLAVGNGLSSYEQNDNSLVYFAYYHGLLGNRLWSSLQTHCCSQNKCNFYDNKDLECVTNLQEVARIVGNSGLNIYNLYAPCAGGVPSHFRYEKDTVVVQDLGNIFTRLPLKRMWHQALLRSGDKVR
T1 sequence (P10619 327-480 limits assumed): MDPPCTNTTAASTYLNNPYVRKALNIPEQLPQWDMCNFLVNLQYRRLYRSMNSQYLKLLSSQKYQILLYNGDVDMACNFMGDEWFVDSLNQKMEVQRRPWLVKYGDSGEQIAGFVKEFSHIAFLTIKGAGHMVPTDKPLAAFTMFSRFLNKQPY

On GS-7340 Ester Hydrolase, `O=c1oc(Cl)c(Cl)c2ccccc12` [3,4-DCI, 3,4 dichloroisocoumarin, reference compound] gave an IC50 of 4000 nM.

In turn, `CCCCN1C(=O)N(Cc2ccc3[nH]nc(N)c3c2)C(Cc2ccccc2)C(O)C(O)C1Cc1ccccc1` (stereo not shown) [CH3 (DMP-851)] yielded an IC50 at 84V90M [1] of 9.4 nM. Further, the EC50 amounted to 54 nM in the data set with WT; 30 nM in the data set on 48V54V82S [2]; 17 nM in the data set with 46I50V [3]; 69 nM with 30N82I88D [4]; 33 nM in the data set on 48V54V82A [5]; 918 nM at 84V90M [6]. In addition, in the data set on 48V82A90M [7], the EC50 stood at 22 nM.

What is called CC50 is the concentration giving 50% cytotoxicity. Read a high CC50 as lower toxicity to the cells. As for `CCOP(=O)(COc1ccc(C[C@H](NC(=O)O[C@H]2CO[C@H]3OCC[C@H]32)[C@H](O)CN(CC(C)C)S(=O)(=O)c2ccc(OC)cc2)cc1)OCC` [Compound 13], the CC50 in the data set on MT-2 cells [8] came out at 50000 nM. This counts as double-digit micromolar.

For the compound `CCCCOC(=O)C(C)NP(=O)(COc1ccc(CC(NC(=O)OC2COC3OCCC23)C(O)CN(CC(C)C)S(=O)(=O)c2ccc(OC)cc2)cc1)NC(C)C(=O)OCCCC` (stereo not shown) [GS-16503], the “Total No. of Resistant Viruses” value in [9] is given as 0. For the same compound, the “Metabolism (conversion to acid metabolites), increase at 1 μM vs. 10 μM” value with MT-2 cells [10] is given as 3 fold. In data set [11], the “Intracellular Acid Metabolite Concentration” value stood at 279 ± 47 µM; the “Intracellular Prodrug Concentration” value came to 61 ± 40 µM; the “Intracellular Prodrug and Metabolites Concentration, uM: Acid Metabolite” value is 279 ± 47 µM; the “Intracellular Prodrug and Metabolites Concentration: Prodrug” value was 61 ± 40 µM. In [11], the “Intracellular Prodrug and Metabolites Concentration: Total” value is 340 ± 35 µM. For the same compound, in the data set on Quiescent PBMC, the “Cell-Associated PI, pmol/mln cells: Prodrug” value is 0 pmol/mln cells.

As to `CCOC(=O)C(C)OP(=O)(COc1ccc(C[C@H](NC(=O)O[C@H]2CO[C@H]3OCC[C@H]32)[C@H](O)CN(CC(C)C)S(=O)(=O)c2ccc(OC)cc2)cc1)Oc1ccccc1` (stereo partly shown) [GS-17394], the “Metabolism (conversion to acid metabolites), increase at 1 μM vs. 10 μM” value with MT-2 cells [10] was “independent”. In addition, in data set [11], the “Intracellular Acid Metabolite Concentration” value stood at 629 ± 303 µM; the “Intracellular Prodrug Concentration” value stood at 69 ± 85 µM; the “Intracellular Prodrug and Metabolites Concentration, uM: Acid Metabolite” value was determined as 629 ± 303 µM; the “Intracellular Prodrug and Metabolites Concentration: Prodrug” value worked out at 69 ± 85 µM. For the same compound, the “Intracellular Prodrug and Metabolites Concentration: Total” value in data set [11] was 698 ± 301 µM. Also, the “Cell-Associated PI, pmol/mln cells: Prodrug” value with Quiescent PBMC came to 0 pmol/mln cells.

On to `CCOP(=O)(COc1ccc(CC2C(O)C(O)C(Cc3ccc(OC)cc3)N(Cc3ccc(O)cc3)C(=O)N2Cc2ccc(O)cc2)cc1)OCC` (stereo not shown) [OCH3, Ph-pOH, OCH2PO3Et2], for which the EC50 in the data set with 48V54V82S [2] is 106 nM; in the data set on 30N82I88D [4], 23 nM; in the data set with 48V82A90M [7] it was 48 nM.

Consider `CCOP(=O)(COc1ccc(CC2C(O)C(O)C(Cc3ccc(OC)cc3)N(Cc3cccnc3)C(=O)N2Cc2cccnc2)cc1)OCC` (stereo not shown) [OCH3, m-pyridine, OCH2PO3Et2], for which the EC50 in the data set on 48V54V82S [2] amounted to 970 nM; in the data set with 46I50V [3], 352 nM; with 30N82I88D [4], 106 nM; in the data set with 48V54V82A [5], 1020 nM; on 84V90M [6], 765 nM; in the data set on 48V82A90M [7], 480 nM.

For the compound `CCOC(=O)C(C)NP(=O)(COc1ccc(C[C@@H]2[C@H](O)[C@@H](O)[C@@H](Cc3ccccc3)N(Cc3ccccc3)C(=O)N2Cc2ccccc2)cc1)Oc1ccccc1` (stereo partly shown) [R=H, R1=Ph, R2=Mono-Ala-Et], the results for the IC50 (at 84V90M [12]; in data set [19]) were 50 nM and 5 nM, respectively. The EC50 worked out at 310 nM with WT HIV-1; 1950 nM in the data set on 48V54V82S [13]; 2450 nM in the data set on 48V82A90M [14]; 1250 nM in the data set on 46I50V [15]; 238 nM in the data set with 30N82I88D [16]; 2940 nM in data set [17]. Besides, the EC50 in the data set on 48V54V82A [18] amounted to 2850 nM.

Regarding `CCOP(=O)(CCNC(=O)Oc1ccc(C[C@@H]2[C@H](O)[C@@H](O)[C@@H](Cc3ccc(OC)cc3)N(Cc3cccc(N)c3)C(=O)N2Cc2cccc(N)c2)cc1)OCC` [R=OCH3, R1=Ph-mNH2, R2=OCONH(CH2)2PO3Et2], the EC50 in the data set with 48V54V82S [13] amounted to 214 nM; in the data set with 48V82A90M [14] it was 215 nM; with 46I50V [15] it was 184 nM; in the data set with 30N82I88D [16], 77 nM; in data set [17], 2260 nM; with 48V54V82A [18], 262 nM.

In the case of `CCOP(=O)(CNC(=O)Oc1ccc(C[C@@H]2[C@H](O)[C@@H](O)[C@@H](Cc3ccc(OC)cc3)N(Cc3cccc(N)c3)C(=O)N2Cc2cccc(N)c2)cc1)OCC` [R=OCH3, R1=Ph-mNH2, R2=OCONH(CH2)PO3Et2], the IC50 came to 85 nM at 84V90M [12] and 9.9 nM in data set [19]. Moreover, the EC50 amounted to 58 nM with WT HIV-1; 203 nM with 48V54V82S [13]; 185 nM in the data set with 48V82A90M [14]; 104 nM in the data set with 46I50V [15]; 68 nM in the data set on 30N82I88D [16]; 2150 nM in [17]. In addition, the EC50 with 48V54V82A [18] stood at 223 nM.

Turning to `CCOP(=O)(CCNC(=O)Oc1ccc(C[C@@H]2[C@H](O)[C@@H](O)[C@@H](Cc3ccc(OC)cc3)N(Cc3ccc(O)cc3)C(=O)N2Cc2ccc(O)cc2)cc1)OCC` [R=OCH3, R1=Ph-pOH, R2=OCONH(CH2)2PO3Et2], the EC50 in the data set with WT HIV-1 came out at 33 nM; in the data set on 48V54V82S [13], 51 nM; in the data set on 48V82A90M [14] it was 55 nM; in the data set with 46I50V [15], 223 nM; with 30N82I88D [16] it was 31 nM; in [17], 495 nM.

For `CCOP(=O)(COc1ccc(CC(NC(=O)OC2COC3OCCC23)C(O)CN(CC(C)C)S(=O)(=O)c2ccc(OC)cc2)cc1)OCC` (stereo not shown) [drawing 651 R1=OEt R2=OEt], the EC50 in data set [20] is less than 50 nM. The half-maximal cytotoxic concentration (CC50) in the data set on MT-2 cells [8] was 5000 to 50000 nM.

For the compound `CCOC(=O)C(CC)OP(=O)(CCNCc1ccc(C[C@H](NC(=O)O[C@H]2CO[C@H]3OCC[C@H]32)[C@H](O)CN(CC(C)C)S(=O)(=O)c2ccc(OC)cc2)cc1)Oc1ccccc1` (stereo partly shown) [drawing 662 R1=Ph R2=Hba-Et], the EC50 in [20] is 50 to 500 nM. For the same compound, the CC50 in the data set with MT-2 cells [8] fell in the range of 5000 to 50000 nM.

For the compound `CCOC(=O)C(C)OP(=O)(CCNCc1ccc(C[C@H](NC(=O)O[C@H]2CO[C@H]3OCC[C@H]32)[C@H](O)CN(CC(C)C)S(=O)(=O)c2ccc(OC)cc2)cc1)Oc1ccccc1` (stereo partly shown) [drawing 662 R1=Ph R2=Lac-Et], in [20], the EC50 lay in the range of 50 to 500 nM. Besides, the half-maximal cytotoxic concentration (CC50) in the data set on MT-2 cells [8] is greater than 50000 nM.
